# Data from patent US20240132525A1, “BORON […], CO[…], METHODS AND USES THEREOF” (priority 2022, published 2024).
# pIC50: −log10 of the molar value. Read-outs that look alike come from different tables or passages of the source.
# What was measured:
# GM-CSF/pSTAT5 = assay: Cytokine function assay GM-CSF/pSTAT5 in lysed whole blood cells; format: cell-based; settings: Whole blood cell, read-out: IC50 GM-CSF
# Protocol: (§1) Cytokine Function Assay Protocols for IL-4/pSTAT6 and GM-CSF/pSTAT5
# GM-CSF/pSTAT5: • Whole blood from a healthy donor was lysed to remove red blood cells. Cells were plated onto a 96 well plate. Compound was added and incubated for 1 hour (at 37° C.). After 1 hour, cells were stimulated with GM-CSF for 15 minutes. Cells were fixed and stained with anti-pSTAT5 antibody. After staining, cells were read on a Beckman-Coulter CytoFLEX.
# IL-31 = assay: Cytokine function assay for IL-31 in DH82 cells; format: cell-based, canine; settings: Canis lupus familiaris
# Protocol: Cytokine Function Assay Protocol for IL-31
# The protocol for the cytokine function assay for IL-31 is set forth below: • 1. […] After 24 hr, wash with 37° C. pre-warmed PBS (100 uL/well). • 3. Add serum-free MEM, 90 uL per well, 2 hr, 37° C. • 4. Add 10 uL 10×IL-31 (40, 10, 2.5 ug/mL) in duplicate, 5 min, 37° C. • 5. Remove medium, add 60 uL lysis buffer per well. Agitate on a plate shaker (˜350 rpm) for 10 min at RT. • 6. […] Add 6 uL Acceptor Mix, cover with aluminum foil, quickly spin at 1000 rpm, shake at 120 rpm for 2 min, then incubate at RT for 1 hr. • 8. Add 6 uL Donor Mix, cover with aluminum foil, quickly spin at 1000 rpm, shake at 120 rpm for 2 min, then incubate at RT for 1 hr. • 9. Measure the fluorescence using EnVision™ plate reader.
# [1] = Dog LM (liver microsome) assay; format: in vitro ADME; settings: Table 3a; predicted clearance as percent of liver blood flow, 1 μM, 1 mg/ml microsomal protein
# Method in brief: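 Pooled Beagle liver microsomes (1 mg/ml protein), compound 1 μM, Tris pH 7.6 with 5 mM MgCl2, 37 °C, started with 1 mM NADPH; parent loss by LC-MS/MS over several time points.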
# PDE4B = PDE4B (Homo sapiens (Human), UniProt Q07343); assay: PDE4B inhibition; format: biochemical; settings: Table 3a
# Chain of PDE4B (Q07343 whole entry, species assumed): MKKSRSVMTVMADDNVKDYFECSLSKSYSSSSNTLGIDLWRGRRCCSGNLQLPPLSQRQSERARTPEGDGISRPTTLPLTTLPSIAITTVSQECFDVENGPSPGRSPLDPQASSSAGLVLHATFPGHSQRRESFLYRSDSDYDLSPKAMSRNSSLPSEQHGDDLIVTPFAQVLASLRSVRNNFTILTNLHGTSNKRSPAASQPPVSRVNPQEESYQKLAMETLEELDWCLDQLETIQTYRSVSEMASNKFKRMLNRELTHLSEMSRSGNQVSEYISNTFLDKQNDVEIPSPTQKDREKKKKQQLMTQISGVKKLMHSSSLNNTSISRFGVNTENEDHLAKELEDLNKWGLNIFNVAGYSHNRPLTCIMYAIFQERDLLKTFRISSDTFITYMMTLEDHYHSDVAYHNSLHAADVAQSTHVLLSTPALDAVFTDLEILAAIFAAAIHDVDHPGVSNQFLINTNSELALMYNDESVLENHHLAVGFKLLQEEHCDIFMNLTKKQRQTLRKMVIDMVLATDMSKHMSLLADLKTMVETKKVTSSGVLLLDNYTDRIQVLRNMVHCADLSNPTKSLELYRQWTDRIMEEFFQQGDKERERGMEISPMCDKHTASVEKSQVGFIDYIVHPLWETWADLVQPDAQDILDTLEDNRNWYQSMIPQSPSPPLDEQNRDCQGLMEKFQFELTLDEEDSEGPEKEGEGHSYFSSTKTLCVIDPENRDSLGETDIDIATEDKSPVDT
# IL-4/pSTAT6 = assay: Cytokine function assay IL-4/pSTAT6 in PBMC; format: cell-based; settings: PBMC, read-out: IC50 IL-4, Table 3a
# Protocol: as §1
# IL-4/pSTAT6: • PBMC from a healthy donor was plated onto a 96 w plate. Compound was added and incubated for 1 hour (at 37° C.). After 1 hour, cells were stimulated with IL-4 for 15 minutes. Cells were fixed and stained with anti-pSTAT6 antibody. After staining, cells were read on a Beckman-Coulter CytoFLEX.
# JAK2 = JAK2 (Homo sapiens (Human), UniProt O60674); assay: Biochemical kinase assay (33P-ATP filter-binding), JAK2
# Chain of JAK2 (O60674 whole entry, species assumed): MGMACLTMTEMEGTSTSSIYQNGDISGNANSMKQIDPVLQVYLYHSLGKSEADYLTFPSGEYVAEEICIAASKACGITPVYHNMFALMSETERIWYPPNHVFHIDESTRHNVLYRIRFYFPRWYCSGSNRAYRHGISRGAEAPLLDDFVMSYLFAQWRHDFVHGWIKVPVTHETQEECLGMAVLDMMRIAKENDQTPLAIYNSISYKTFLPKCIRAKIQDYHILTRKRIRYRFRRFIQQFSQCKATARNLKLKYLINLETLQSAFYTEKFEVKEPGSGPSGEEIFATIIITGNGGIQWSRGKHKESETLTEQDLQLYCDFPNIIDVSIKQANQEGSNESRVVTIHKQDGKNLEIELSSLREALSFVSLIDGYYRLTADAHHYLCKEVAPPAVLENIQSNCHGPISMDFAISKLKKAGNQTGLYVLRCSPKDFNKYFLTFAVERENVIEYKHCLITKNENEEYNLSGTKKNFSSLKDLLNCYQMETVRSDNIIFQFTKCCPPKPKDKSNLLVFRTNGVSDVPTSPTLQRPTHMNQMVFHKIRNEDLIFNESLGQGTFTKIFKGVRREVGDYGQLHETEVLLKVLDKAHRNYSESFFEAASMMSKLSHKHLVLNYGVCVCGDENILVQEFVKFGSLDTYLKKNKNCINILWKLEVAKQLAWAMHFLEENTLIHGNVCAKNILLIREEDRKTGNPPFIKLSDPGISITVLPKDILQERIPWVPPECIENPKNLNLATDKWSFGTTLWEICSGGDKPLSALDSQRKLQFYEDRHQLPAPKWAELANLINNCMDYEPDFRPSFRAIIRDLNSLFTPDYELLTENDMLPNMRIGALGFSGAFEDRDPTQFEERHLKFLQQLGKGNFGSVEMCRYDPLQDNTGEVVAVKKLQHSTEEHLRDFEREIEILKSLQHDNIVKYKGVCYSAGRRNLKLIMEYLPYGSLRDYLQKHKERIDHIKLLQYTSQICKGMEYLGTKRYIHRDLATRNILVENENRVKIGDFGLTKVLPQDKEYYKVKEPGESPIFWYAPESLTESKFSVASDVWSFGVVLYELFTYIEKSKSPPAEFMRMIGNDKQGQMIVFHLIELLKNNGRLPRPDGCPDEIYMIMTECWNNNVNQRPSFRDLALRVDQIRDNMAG
# From the text: (§2) Biochemical Kinase Assay Protocol (JAK)
# (§3) Reaction Procedure: • 1. […] Detected kinase activity by filter-binding method.
# JAK1 = JAK1 (Homo sapiens (Human), UniProt P23458); assay: Biochemical kinase assay (33P-ATP filter-binding), JAK1
# Chain of JAK1 (P23458 whole entry, species assumed): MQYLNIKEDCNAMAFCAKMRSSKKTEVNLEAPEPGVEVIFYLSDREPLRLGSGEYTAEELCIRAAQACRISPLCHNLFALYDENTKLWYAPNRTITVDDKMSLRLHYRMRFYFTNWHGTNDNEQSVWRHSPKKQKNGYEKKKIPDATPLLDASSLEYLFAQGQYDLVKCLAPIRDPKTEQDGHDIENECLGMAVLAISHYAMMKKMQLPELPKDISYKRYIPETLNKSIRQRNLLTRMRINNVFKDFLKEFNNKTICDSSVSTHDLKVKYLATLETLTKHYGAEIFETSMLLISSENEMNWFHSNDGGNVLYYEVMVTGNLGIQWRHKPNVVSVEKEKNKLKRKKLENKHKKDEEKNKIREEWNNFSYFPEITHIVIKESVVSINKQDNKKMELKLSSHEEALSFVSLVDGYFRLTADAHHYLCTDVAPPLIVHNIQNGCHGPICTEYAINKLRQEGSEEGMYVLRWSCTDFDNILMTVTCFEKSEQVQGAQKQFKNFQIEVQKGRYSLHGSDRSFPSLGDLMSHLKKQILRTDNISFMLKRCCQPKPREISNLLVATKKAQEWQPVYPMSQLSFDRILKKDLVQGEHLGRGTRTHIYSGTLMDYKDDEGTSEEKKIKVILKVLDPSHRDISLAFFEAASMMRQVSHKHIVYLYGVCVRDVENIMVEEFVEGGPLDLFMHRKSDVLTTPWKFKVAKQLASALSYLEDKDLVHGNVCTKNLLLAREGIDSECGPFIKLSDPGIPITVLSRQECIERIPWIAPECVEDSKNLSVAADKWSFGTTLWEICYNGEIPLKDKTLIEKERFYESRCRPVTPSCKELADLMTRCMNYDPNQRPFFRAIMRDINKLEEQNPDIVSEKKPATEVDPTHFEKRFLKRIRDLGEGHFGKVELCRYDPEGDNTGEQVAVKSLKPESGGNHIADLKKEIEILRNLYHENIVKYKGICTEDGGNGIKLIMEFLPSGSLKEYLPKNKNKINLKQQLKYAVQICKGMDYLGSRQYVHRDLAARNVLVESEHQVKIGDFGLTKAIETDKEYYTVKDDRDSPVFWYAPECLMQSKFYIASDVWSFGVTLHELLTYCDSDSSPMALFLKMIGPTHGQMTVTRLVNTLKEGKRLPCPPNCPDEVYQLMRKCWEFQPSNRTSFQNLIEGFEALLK
# From the text: as §2, §3
# [2] = Pharmacokinetic profile after single oral administration in Beagle dogs; format: in vivo; settings: male Beagle dogs, single oral dose about 1.0 mg/kg, fasted; for concentration at 48 h: read-out: Mean Clast
# Protocol: Summary of Pharmacokinetic (PK) profile
# Three healthy male Beagle dogs were studied to determine a representative pharmacokinetic (PK) profile following a single oral administration of 1.0 mg/kg to each dog in a fasted state. Blood samples were collected at pre-dose, 0.25, 0.5, 1, 2, 4, 8, 24; 32, and 48 h post dose following oral administration (1 mg/mL in 10% Propylene glycol (PG), 45% PEG400, 7% Cremophor EL, 38% 50 mM citrate buffer pH 3.0 suspension or clear solution).
# [3] = test system: recombinant canine IL-31 induced pruritic behaviors; assay: IL-31 induced itch behavior in Beagle dogs; format: in vivo; settings: oral 1 mg/kg once daily for 5 days, IL-31 1.75 μg/kg i.v. on day 5
# Protocol: Ten healthy adult male Beagle dogs with no previous history of pruritus or skin disease were selected. […] Afterward, all dogs received repeated administration of oral solution and again intravenously recombinant canine IL-31 injections to assess inhibition of IL-31 induced itch behavior. (See, e.g., Gonzales, Vet. Dermatol. 2016, 27, 34-e10 and Pearson, Vet. Sci. 2023, 10, 369)
# An oral solution of a representative compound of the present disclosure, Example 33a, at 1 mg/kg once daily in the morning for five (5) days, was administered to each dog in a crossover design for the five (5) consecutive days. All dogs were fasted during the oral administration and thirty minutes (30 min) post oral drug administration. On day 5, all dogs were administered a recombinant canine IL-31 intravenously at the dose of 1.75 μg/kg.
# [4] = DH82, Table 3a, read-out: IC50 IL-31
Compound,pIC50 (GM-CSF/pSTAT5),"pIC50 (IL-31; DH82, read-out: IC50 IL-31)",Dog LM QH [1],pIC50 (PDE4B),pIC50 (IL-4/pSTAT6),"pIC50 (JAK2; Table 3a, read-out: IC50 JAK2)","pIC50 (JAK1; Table 3a, read-out: IC50 JAK1)",pIC50 (IL-31; [4]),"pIC50 (JAK2; IC50 JAK2, Table 3a)","pIC50 (JAK1; IC50 JAK1, Table 3a)","concentration at 48 h ([2]; dog, in vivo)",Median Tlast [2],anti-pruritic effect compared to IL-31 baseline/alone [3],"Cmax ([2]; dog, in vivo)","AUC(0-inf) ([2]; dog, in vivo, read-out: Mean AUCINF_obs)","AUC(0-t) ([2]; dog, in vivo, read-out: Mean AUClast)","half-life ([2]; dog, in vivo, read-out: Mean T1/2 (converted))","Tmax ([2]; dog, in vivo, read-out: Median Tmax)"
"Cc1cnc(Nc2ccc3c(c2)C(C)(C)OB3O)nc1N[C@@H]1COCC[C@H]1C#N (relative stereo) [Example 032, (trans)-3-[[2-[(1-hydroxy-3,3-dimethyl-2,1-benzoxaborol-5-yl)amino]-5-methyl-pyrimidin-4-yl]amino]tetrahydropyran-4-carbonitrile]",6.05,7.29,42.0%,6.12,7.18,8.48,9.22,–,–,–,–,–,–,–,–,–,–,–
"Cc1cnc(Nc2ccc3c(c2)COB3O)nc1N[C@@H]1COCC[C@H]1C#N (single isomer, unassigned) [Example 026a, (trans)-3-((2-((1-hydroxy-1,3-dihydrobenzo[c][1,2]oxaborol-5-yl)amino)-5-methylpyrimidin-4-yl)amino)tetrahydro-2H-pyran-4-carbonitrile]",5.37,–,<19.9%,6.01,7.30,–,–,7.67,8.80,9.40,–,–,–,–,–,–,–,–
"Cc1cnc(Nc2cc(F)c3c(c2)COB3O)nc1N[C@@H]1COCC[C@H]1C#N (single isomer, unassigned) [Example 029a, (trans)-3-[[2-[(7-fluoro-1-hydroxy-3H-2,1-benzoxaborol-5-yl)amino]-5-methyl-pyrimidin-4-yl]amino]tetrahydropyran-4-carbonitrile]",5.93,–,<19.9%,6.42,7.31,8.43,10.70,7.70,–,–,–,–,–,–,–,–,–,–
"Cc1cnc(Nc2cc(Cl)c3c(c2)COB3O)nc1N[C@@H]1COCC[C@H]1C#N (single isomer, unassigned) [Example 031b, (trans)-3-((2-((7-chloro-1-hydroxy-1,3-dihydrobenzo[c][1,2]oxaborol-5-yl)amino)-5-methylpyrimidin-4-yl)amino)tetrahydro-2H-pyran-4-carbonitrile]",–,–,<19.9%,–,–,–,–,–,–,–,7.98 ng/mL,48 h,–,–,–,–,–,–
"Cc1cnc(Nc2cc3c(c(C(F)(F)F)c2)B(O)OC3)nc1N[C@@H]1COCC[C@H]1C#N (single isomer, unassigned) [Example 033a, (trans)-3-[[2-[[1-hydroxy-7-(trifluoromethyl)-3H-2,1-benzoxaborol-5-yl]amino]-5-methyl-pyrimidin-4-yl]amino]tetrahydropyran-4-carbonitrile]",5.77,–,<19.9%,–,6.86,8.09,9.40,7.72,–,–,4.74 ng/mL,48 h,significant anti-pruritic effect,279 ng/mL,2.56 µg·h/mL,2.46 µg·h/mL,14.6 h,1 h
"N#CC1CCOCC1Nc1nc(Nc2cc(F)c3c(c2)COB3O)ncc1Cl (stereo not drawn) [Example 050, 3-((5-chloro-2-((7-fluoro-1-hydroxy-1,3-dihydrobenzo[c][1,2]oxaborol-5-yl)amino)pyrimidin-4-yl)amino)tetrahydro-2H-pyran-4-carbonitrile]",5.68,–,<19.9%,6.08,7.02,8.92,9.70,7.62,–,–,–,–,–,–,–,–,–,–
